Source: patent US8841281B2, “Transition metal complexes of amino acids and related ligands and their use as catalysts, anti-microbials, and anti-cancer agents” (Virginia Tech Intellectual Properties, Inc., priority 2011, dated 2014)
Read-outs that look alike come from different tables or passages of the source.

Tests used:
S. Aur = assay: Activity against S. Aur (Table VIIIB); format: cell-based, Staphylococcus aureus
MRSA = assay: Activity against MRSA strains (Table VIIIB, compounds used alone); format: cell-based, Staphylococcus aureus; settings: for activity against MRSA when used alone: ligand compound used alone, not complexed
E. coli = assay: MIC of complexes against E. coli; format: cell-based
M. chelonae = assay: 96 well plate dilution test, MIC against M. chelonae; format: cell-based
[1] = tested on: methicillin-resistant Staphylococcus aureus (MRSA); assay: 96 well plate dilution test, MIC against MRSA; format: cell-based; settings: Pd(AA)2 complexes against MRSA
Description: Biological activities of complexes of Formula 1 were tested against various strains of bacteria using the following general procedure. It is noted that complexes of Formula 2 and Formula 3 were tested using the same procedure. Generally, 96 well plate dilution tests were performed using a 96-well plate consisting of 8 rows and 12 columns. Each well is charged with the test organism in the appropriate growth medium. The test complex is also dissolved in the test medium and the first well is charged with sufficient complex solution to provide a concentration of 250 ug/mL. […] Well 12 is used as a control with no test complex. The plates are incubated for 48 hrs in the case of bacteria and 4-5 days in the case of mycobacteria. The wells are read using a spectrophotometer measuring turbidity at 540 nm. A high optical density indicates significant cell growth while a low optical density indicates significant inhibition. All results reported are normalized in terms of inhibition of cell growth and reported as MICs.
Biological activity is expressed in terms of the Minimum Inhibitory Concentration (MIC) in units of micrograms per mL. The MIC is the lowest concentration of the complex at which full inhibition of organism growth is observed.
Octahedral iridium(III) complexes of Formula 2 were tested against various strains of bacteria using the procedure described above for Formula 1. Biological activity is expressed in terms of the MIC in units of micrograms per mL.

M. smegmatis = assay: 96 well plate dilution test, MIC against M. smegmatis; format: cell-based
M. abscessus = assay: 96 well plate dilution test, MIC against M. abscessus; format: cell-based
[2] = tested on: Mycobacterium smegmatis strain mc^2155; format: cell-based
[3] = tested on: Mycobacterium bovis strain BCG; format: cell-based
[4] = tested on: Mycobacterium avium strain A5
[5] = tested on: Mycobacterium intracellulare
[6] = tested on: Mycobacterium abscessus strain AAy-P-1
[7] = tested on: Mycobacterium marinum ATCC 927
[8] = tested on: Mycobacterium chelonae strain EO-P-1
[9] = tested on: mycobacteria, Staphylococcus aureus and methicillin-resistant S. aureus (MRSA); settings: among Ir, Ru, Rh L-α-amino acid complexes
[10] = Ruthenium piano stool complexes

Row | Compound | Minimal Inhibitory Concentration (MIC) M. smegmatis [2] | Minimal Inhibitory Concentration (MIC) M. avium [4] | Minimal Inhibitory Concentration (MIC) M. intracellulare [5] | Minimal Inhibitory Concentration (MIC) M. abscessus [6] | Minimal Inhibitory Concentration (MIC) M. marinum [7] | Minimal Inhibitory Concentration (MIC) M. chelonae [8] | further results
1 | CN(C)CCN [4 (N,N-dimethyl ethylenediamine)] |  |  |  |  |  |  | Activity (MIC) S. Aur (S. Aur): >250 µg/mL; Activity (MIC) MRSA PI-1 (MRSA; strain PI-1): >250 µg/mL; Activity (MIC) MRSA PI-34380 (MRSA; strain PI-34380): >250 µg/mL; Activity (MIC) MRSA PI-34864 (MRSA; strain PI-34864): >250 µg/mL; Activity (MIC) MRSA PI-36361 (MRSA; strain PI-36361): >250 µg/mL; Activity (MIC) MRSA PI-43300 (MRSA; strain PI-43300): >250 µg/mL; Activity (MIC) MRSA PI-52300 (MRSA; strain PI-52300): >250 µg/mL; Activity (MIC) MRSA PI-53016 (MRSA; strain PI-53016): >250 µg/mL
2 | C1=CCCC=CCC1.C[P](C)(C)[Ir+]([P](C)(C)C)[P](C)(C)C.[Cl-] [Ir(COD)(PMe3)3] |  |  |  |  |  |  | MIC ug/mL E. coli (E. coli): 60 µg/mL
3 | Cc1c(C)c(C)[c-](C)c1C.NC(Cc1ccc(O)cc1)C(=O)[O-].[Cl-].[Ir+3] [Ir(Cp*)L-Tyr] |  |  |  |  |  |  | M. chelonae MIC (M. chelonae; Iridium piano stool complexes): Inactive
4 | CN(C)CCN [N,N-dimethylethylenediamine, reference compound] |  |  |  |  |  |  | activity against MRSA when used alone (MRSA): not active
5 | CNCCN [N-methylethylenediamine, reference compound] |  |  |  |  |  |  | activity against MRSA when used alone (MRSA): not active
6 | CC(N)C(=O)[O-].CC(N)C(=O)[O-].[Pd+2] (stereo not drawn) [Pd(Ala)2] |  |  |  |  |  |  | MIC [1]: inactive
7 | O=C([O][Pd][O]C(=O)C1CCCN1)C1CCCN1 (stereo not drawn) [Pd(Pro)2, bis-prolinato palladium(II)] |  |  |  |  |  |  | MIC [1]: 7.5 µg/mL
8 | NC(CO)C(=O)[O-].NC(CO)C(=O)[O-].[Pd+2] (stereo not drawn) [Pd(Ser)2] |  |  |  |  |  |  | MIC [1]: inactive
9 | CC(C)C(N)C(=O)[O-].Cc1ccc(C(C)C)cc1.[Cl-].[Ru+2] [Ru(p-cymene)Val] |  |  |  |  |  |  | M. smegmatis MIC (M. smegmatis; [10]): 7.5 µg/mL; M. chelonae MIC (M. chelonae; [10]): 7.5 µg/mL; M. abscessus MIC (M. abscessus; [10]): 7.5 µg/mL
10 | CC(N)C(=O)[O][Ru][Cl].Cc1ccc(C(C)C)cc1 [Ru(p-cymene)ala] |  |  |  |  |  |  | M. smegmatis MIC (M. smegmatis; [10]): 7.5 µg/mL; M. chelonae MIC (M. chelonae; [10]): 7.5 µg/mL; M. abscessus MIC (M. abscessus; [10]): 7.5 µg/mL
11 | CC(C)CC(N)C(=O)[O-].Cc1ccc(C(C)C)cc1.[Cl-].[Ru+2] [Ru(p-cymene)leu] |  |  |  |  |  |  | M. smegmatis MIC (M. smegmatis; [10]): 3.9 µg/mL; M. chelonae MIC (M. chelonae; [10]): 7.5 µg/mL; M. abscessus MIC (M. abscessus; [10]): 7.5 µg/mL
12 | CC[C@@H](CO)NCCN[C@@H](CC)CO [ethambutol, reference compound] |  |  |  |  |  |  | activity against MRSA when used alone (MRSA): not active
13 | NCCN [ethylenediamine, reference compound] |  |  |  |  |  |  | activity against MRSA when used alone (MRSA): not active
14 | Cp*IrCl (D-Proline) [1 (D-pro)] | >250 µg/mL | >250 µg/mL | >250 µg/mL | >250 µg/mL | >250 µg/mL | >250 µg/mL | Minimal Inhibitory Concentration (MIC) M. bovis [3]: >250 µg/mL
15 | Cp*IrCl (Glycine) [1 (L-gly)] | 61 µg/mL | >250 µg/mL | >250 µg/mL | 125 µg/mL | >250 µg/mL | 125 µg/mL | 
16 | Cp*IrCl (L-Alanine) [1 (L-ala)] | 15 µg/mL | >250 µg/mL | 61 µg/mL | 31 µg/mL | >250 µg/mL | 61 µg/mL | M. smegmatis MIC (M. smegmatis; Iridium piano stool complexes): 7.5 µg/mL; M. chelonae MIC (M. chelonae): 7.5 µg/mL; M. abscessus MIC (M. abscessus; Iridium piano stool complexes): 7.5 µg/mL; Minimal Inhibitory Concentration (MIC) M. bovis [3]: 31 µg/mL
17 | Cp*IrCl (L-Leucine) [1 (L-leu)] | 32 µg/mL | >250 µg/mL | 32 µg/mL | 32 µg/mL | >250 µg/mL | 32 µg/mL | M. smegmatis MIC (M. smegmatis; Iridium piano stool complexes): 3.9 µg/mL; M. chelonae MIC (M. chelonae): 3.9 µg/mL
18 | Cp*IrCl (L-Phenylalanine) [1 (L-phe)] |  |  |  |  |  |  | relative anti-mycobacterial / antibiotic activity [9]: highest activity
19 | Cp*IrCl (L-Phenylglycine) [1 (L-phengly)] | 5 µg/mL | >250 µg/mL | 15 µg/mL | 31 µg/mL | >250 µg/mL | 10 µg/mL | Minimal Inhibitory Concentration (MIC) M. bovis [3]: 10 µg/mL; relative anti-mycobacterial / antibiotic activity [9]: highest activity
20 | Cp*IrCl (L-Proline) [1 (L-pro)] | 10 µg/mL | 125 µg/mL | 61 µg/mL | 15 µg/mL | >250 µg/mL | 15 µg/mL | M. smegmatis MIC (M. smegmatis; Iridium piano stool complexes): 3.9 µg/mL; M. chelonae MIC (M. chelonae): 7.5 µg/mL; M. abscessus MIC (M. abscessus; Iridium piano stool complexes): 3.9 µg/mL; Minimal Inhibitory Concentration (MIC) M. bovis [3]: 15 µg/mL; relative anti-mycobacterial / antibiotic activity [9]: highest activity
21 | Cp*IrCl (L-Serine) [1 (L-ser)] | >250 µg/mL | >250 µg/mL |  |  |  |  | M. chelonae MIC (M. chelonae): Inactive
22 | Cp*IrCl (L-Trans-4-Hydroxyproline) [1 (L-hyp)] | >250 µg/mL | >250 µg/mL |  |  |  |  | 
23 | Cp*IrCl (L-Valine) [1 (L-val)] | 17 µg/mL | >250 µg/mL | >250 µg/mL | 61 µg/mL | >250 µg/mL | 31 µg/mL | M. smegmatis MIC (M. smegmatis; Iridium piano stool complexes): 3.9 µg/mL; M. chelonae MIC (M. chelonae): 7.5 µg/mL; M. abscessus MIC (M. abscessus; Iridium piano stool complexes): 7.5 µg/mL; Minimal Inhibitory Concentration (MIC) M. bovis [3]: 31 µg/mL
24 | Cp*IrCl (N-methyl-Glycine) [1 (L-N-methylgly)] | >250 µg/mL | >250 µg/mL |  |  |  |  | 
25 | Napthalenediamine [reference compound] |  |  |  |  |  |  | activity against MRSA when used alone (MRSA): active
26 | [Ir(COD)(N,N-dimethylethylenediamine)]Cl [3 (N,N-methyl en)] | >250 µg/mL | >250 µg/mL | >250 µg/mL | >250 µg/mL | >250 µg/mL | >250 µg/mL | Minimal Inhibitory Concentration (MIC) M. bovis [3]: >250 µg/mL; MIC (gram positive MRSA): >250 µg/mL
27 | [Ir(COD)(N-methylethylenediamine)]Cl [3 (N-methyl en)] | >250 µg/mL | >250 µg/mL | >250 µg/mL | >250 µg/mL | >250 µg/mL | >250 µg/mL | Minimal Inhibitory Concentration (MIC) M. bovis [3]: >250 µg/mL; MIC (gram positive MRSA): 16.2 µg/mL
28 | [Ir(COD)(ethambutol)]Cl [3 (EMB)] | 61 µg/mL | >250 µg/mL | >250 µg/mL | 61 µg/mL | >250 µg/mL | 61 µg/mL | MIC (gram positive MRSA; gram positive MRSA): 8.1 µg/mL
29 | [Ir(COD)(ethylenediamine)]Cl [3 (en)] | 125 µg/mL | >250 µg/mL | 61 µg/mL | 61 µg/mL | >251 µg/mL | 61 µg/mL | MIC (gram positive MRSA; gram positive MRSA): 8.1 µg/mL
30 | palladium(II) bis-valine [Pd(Val)2] |  |  |  |  |  |  | MIC [1]: 9.0 µg/mL
